Measured values reported in US7790709B2 (dated 2010).

| melting point | Compound |
| --- | --- |
| 185 to 187 °C | CN(Cc1cc2ccccc2n1C)C(=O)/C=C/c1ccc(N2C(=O)CCC2=O)nc1 |
| 225 to 227 °C | CN(Cc1cc2ccccc2n1C)C(=O)/C=C/c1ccc(NC(=O)CCC(N)=O)nc1 |
| 206 to 209 °C (dec.) | CN(Cc1cc2ccccc2n1C)C(=O)/C=C/c1ccc(NC(=O)CCC(=O)N2CCOCC2)nc1 |
